The results in this text go back to patent US12409162B2, “Carbazole derivatives sensitizing cells to anti-cancer agents” (CENTRE NATIONAL DE LA RECHERCHE SCIENTIFIQUE, priority 2019, dated 2025).

Series [1] deals with HeLa cells. In words: Prestoblue cell viability assay on HeLa cells (compounds alone and with paclitaxel). The note with it: HeLa cells; for GI50: Homo sapiens, HeLa, 72 h, compound alone, read-out: GI50 (50% of growth inhibition). The class given is cell-based. The method, then: Cell viability was analyzed using the colorimetric Prestoblue assay (Invitrogen, #A13262). Cells were seeded in 96 well microplates (Greiner, #655077) at a density of 2,500 cells per well and allowed to adhere for 24 h before being treated for 72 h with either DMSO (0.1% final concentration) or drugs at indicated concentrations. After the 72 h treatment, 10 μL A Prestoblue was added to each well and cells were incubated for another 45 min. The absorbance of each well was measured using FLUOstar Optima microplate reader (Excitation, 544 nm; Emission, 580 nm).
First, the cytotoxicity on HeLa cells of compounds (I-a), (I-c) (I-f), (I-h), (I-e), (I-m), (I-n) and (I-s) was assessed with the above described “prestoblue” assay.
Then, HeLa cells were treated during 72 hours with different concentrations of a mixture of paclitaxel (0.05, 0.1, 0.25, 0.5, 1, 2.5, 5 nM) and compounds (I-a), (I-f), (I-h), (I-e), (I-m), (I-n), (I-c) and (I-s).

Series [2] concerns HeLa cells. In words: FITC Annexin V apoptosis assay by flow cytometry. The class given is cell-based. The protocol:
Apoptosis assay was performed with FITC Annexin V Apoptosis Detection Kit I (BD Biosciences, #556547) using flow cytometry and analyzed by FCS express software.
On the technique in general: In flow cytometry, cells or beads pass a laser one at a time.

Another series concerns HeLa cell tumors. Nature of the series: HeLa cell xenograft tumor growth in mice. The class given is in vivo. The method, then: The effects on tumor growth of compound (I-a) and paclitaxel injected separately to the effect of a combined administration of compound (I-a) plus paclitaxel were compared in a tumor mouse model.
A first series of experiments (not shown) assessed that HeLa cell tumors were sensitive to therapeutic doses of paclitaxel. To that aim, mice bearing sizable tumors, formed of HeLa cells that have been xenografted, received intraveinous (i.v.) injections of paclitaxel (from 2 to 8 mg/Kg), every two days during 10 days. In the same experiment, the effect of compound (I-a) (from 15 to 60 mg/Kg, i.v.) injected with the same schedule was analyzed. […] The results confirmed the anti-tumor effect of high paclitaxel concentrations in this model. They also indicate that compound (I-a), when applied alone, has no significant anti-tumor activity, even at high concentrations.
A second experiment was conducted to study of the effect on tumor size of low (2 to 3 mg/Kg) paclitaxel doses in combination with different concentrations of compound (I-a).
Protocol for this combination study: 72 NMRI nude mice (5-week-old females) were injected subcutaneously with 10×10^6 exponentially dividing HeLa cells into the right flank. When tumors have reached a volume of about 200 mm 3 i.e. nine days after cell injection, mice were randomized in 9 groups of 8 mice each and drugs were injected intraveinously every two days. The first group received paclitaxel at 2 mg/kg, the second group received paclitaxel at 3 mg/Kg, the third group received compound (I-a) at 40 mg/Kg, the fourth group received compound (I-a) at 60 mg/Kg, the fifth group received a combination of compound (I-a) (40 mg/Kg) and paclitaxel (2 mg/Kg), the sixth group received a combination of compound (I-a) (40 mg/Kg) and paclitaxel (3 mg/Kg), the seventh group received a combination of compound (I-a) (60 mg/Kg) and paclitaxel (2 mg/Kg), the eight group received a combination of compound (I-a) (60 mg/Kg) and paclitaxel (3 mg/Kg) and the ninth group received the vehicle (14% DMSO, 14% Tween 80 and 72% PBS). Tumor growth was monitored three times per week with a sliding caliper.

The test system of series [3] is HeLa cells. In words: Immunofluorescence of microtubules and DNA. The class given is cell-based. The protocol: The effect of a compound of formula (I) on cell cycle and mitosis of HeLa cells was analyzed by flow cytometry and immunofluorescence.
For immunofluorescence analysis, cells were grown for 48 hours on glass coverslips placed in 24-wells microplates. When cells reached 70% confluence the medium was replaced with a fresh one supplemented with compound (I-a). After a 5-hour exposure to compound (I-a), cells were fixed and permeabilized with −20° C. absolute methanol for 6 min. After washing and saturation with 3% BSA/PBS, cells were incubated for 45 min at room temperature (RT) with anti-alpha-tubulin antibody (1:4000). Cells were washed twice again and subsequently incubated with Alexa 488 conjugated anti-mouse antibody (1:1000) for 30 min at RT. DNA was stained with 20 μmol·L^−1 Hoechst 33342 and coverslips were mounted on microscopic slides with Mowiol 4-88 (Calbiochem, #475904). Images were captured with a Zeiss AxioimagerM2 microscope equipped with the acquisition software AxioVision and analyzed using the Fiji software.

In a further series the test system is RPE-1 cells. In words: Prestoblue viability assay on non-cancerous RPE-1 cells. The class given is cell-based. The protocol: RPE-1 cells were incubated for 72 hours with the indicated combinations of compound (I-a)/paclitaxel. The percentage of viable cells was calculated following a Prestoblue assay, as described above. Data are presented as mean±SEM of 3 independent experiments.

Series [4] relates to HeLa cells. In words: Cell cycle distribution by flow cytometry. In kind it is cell-based. The note with it: HeLa. The protocol: For flow cytometry analysis, Hela cells were treated with the indicated concentrations of compound (I-a) for 12 hours, 24 hours and 48 hours. Cells were then harvested and washed by centrifugation in PBS. Then, 10^5 cells were fixed in 1 mL of 70% methanol at 4° C. overnight. Following two washes with PBS the cells were incubated with 50 μg·mL^−1 propidium iodide and 0.2 mg·mL^−1 RNase A/PBS for 30 min at 37° C. before analysis. The percentage of cells in the specific cell-cycle phases (G0, G1, S, G2, and M) was determined using an Accuri C6 flow cytometer (Becton Dickinson). The results are expressed as the mean±SD of three separate experiments. The significance was determined by a Student's t-test (*p<0.05, **p<0.01, ***p<0.0001, compared with the control). Flow cytometry analysis was performed using HeLa cells. […] The results are expressed as the mean±SD of three separate experiments. The significance was determined by a Student's t-test (*p<0.05, **p<0.01, ***p<0.0001, compared with the control).

Series [5] concerns microtubule dynamics in GFP-EB3 transfected cells. Nature of the series: Microtubule dynamic instability by time-lapse fluorescence microscopy. In kind it is cell-based. The note with it: 25 μM. The protocol: The effect of a high dose (25 μM) of compound (I-a) on microtubule dynamic instability parameters was measured using time-lapse fluorescence microscopy on GFP-EB3 transfected cells (Table 1).

The next series concerns 4T1 cells. In words: Prestoblue cell viability assay on murine cancer cells. The class given is cell-based. The note with it: mice breast cancer cell line (4T1 cells), 72 h. The protocol: Cell viability was analyzed using the colorimetric Prestoblue assay (Invitrogen, #A13262). Cells were seeded in 96 well microplates (Greiner, #655077) at a density of 2,500 cells per well and allowed to adhere for 24 h before being treated for 72 h with either DMSO (0.1% final concentration) or drugs at indicated concentrations. After the 72 h treatment, 10 μL Prestoblue was added to each well and cells were incubated for another 45 min. The absorbance of each well was measured using FLUOstar Optima microplate reader (Excitation, 544 nm; Emission, 580 nm).

On to `Cc1cc(-n2ccc(C=O)c2)c(C)c2c1[nH]c1ccc(Br)cc12` [Compound (I-h)], for which the concentration for 50% growth inhibition (GI50) with HeLa cells [1] worked out at 1.06 µM.
Still for that read-out and setting: the same measure for `Cc1cc(-n2cccc2)c(C)c2c1[nH]c1ccc(Br)cc12` [(I-f)]: 16.2 µM.
The same measure, in the same setting: for `Cc1cc(-n2cccc2)c(C)c2c1[nH]c1cc(Cl)ccc12` [(I-e)] the value was 14.8 µM.
Still for that read-out and setting: for `Cc1cc(-n2ccc(CO)c2)c(C)c2c1[nH]c1ccc(Cl)cc12` [Compound (I-s)] the value was 2 µM.
As for `Cc1cc(-n2ccc(C=O)c2)c(C)c2c1[nH]c1ccc(Cl)cc12` [(I-c)], in the series on HeLa cells [1], the GI50 was determined as 2 µM.
For `Cc1cc(-n2cccc2)c(C)c2c1[nH]c1ccc(Cl)cc12` [Compound (I-a)], the “effect on cell apoptosis when combined with paclitaxel” value in the series with HeLa cells [2] was “synergistic effect”. Besides, the tumor size entry in the series with HeLa cell tumors (combination study, each compound administered separately (paclitaxel 2 or 3 mg/Kg, (I-a) 40 or 60 mg/Kg)) is on record as “no effect”. For the same molecule, the tumor size result in the series with HeLa cell tumors (first experiment, compound (I-a) alone 15 to 60 mg/Kg i.v. every two days) is “did not induce a significant effect on tumor size”. Further, the “weight of treated animals versus vehicle-treated animals” value in the series on HeLa cell tumors (first experiment, paclitaxel 2 to 8 mg/Kg or (I-a) 15 to 60 mg/Kg i.v. every two days during 10 days) is given as “not significantly different”. Further, in the series on HeLa cells [3] (12 μM), the “chromosome congression in mitotic cells” value is “chromosome congression defects were visible in several mitotic cells”. The “chromosome congression in mitotic cells” value in the series with HeLa cells [3] (25 μM) is recorded as “occurrence of such defects was increased”. In the series with HeLa cells [3] (12-25 μM, 5-hour exposure), the “effect on microtubule network in interphase cells” value was “does not visibly perturb microtubule network”. For the same molecule, the “toxicity toward non-cancerous cells” value with RPE-1 cells (72 hours) is given as “does not induce additional toxicity”. The “effect on cell viability in combination with PTX” value in the series on RPE-1 cells (compound at 25 μM) is listed as “able to synergistically affect cell viability”. Besides, the cell cycle effect result in the series with HeLa cells [4] (compound (I-a) 12 μM) is listed as “blocked in G2/M phase”. The cell cycle effect result with HeLa cells [4] (compound (I-a) 25 μM) was “the large majority of the cells is blocked in prometaphase”. For the same molecule, in series [5], the “% time spent growing” value is given as 60.40 ± 0.25 %, the “% time spent in pause” value is 39.60 ± 0.31 %, the “Catastrophe frequency (min^−1 ± SE)” value turned out to be 2.74 ± 0.70 min⁻¹ and the “Growth rate (μm/min ± SE)” value is 10.20 ± 0.05 μm/min. The “Catastrophe frequency (μm^−1 ± SE)” value in series [5] (distance-based) is listed as 0.46 ± 0.05 *** μm^−1. Also, in the series on HeLa cells [1] (12 μM), the “cytotoxicity of the compound on its own” value is “not cytotoxic”. Also, in the series with HeLa cells [1], the 50% growth inhibitory concentration (GI50) lay within 19.4 to 21.8 µM. For the same molecule, the “effect of the combination with paclitaxel on cell viability” value in the series on 4T1 cells is listed as “synergistic effect”.

Usually GI50 stands for the concentration giving 50% growth inhibition.
